As usually defined, the ED50 is the dose at which the effect has come halfway, by size or by number of responders. Low values mean an effect at a small dose, high ones a need for a large dose. By Ki is commonly meant a measure of affinity in units of concentration, obtained from inhibition or displacement. A low value points to higher affinity.

In assay [1] the target is T1, Substance-P receptor (Homo sapiens, UniProt P25103). As to the kind of experiment: Effect on IP3 turnover by phospholipaseC positively linked to human NK1 receptor expressed in CHO cells. The settings on record: read-out: pA2 (converted). The class given is functional, cell-based.
T1 sequence (P25103 whole entry): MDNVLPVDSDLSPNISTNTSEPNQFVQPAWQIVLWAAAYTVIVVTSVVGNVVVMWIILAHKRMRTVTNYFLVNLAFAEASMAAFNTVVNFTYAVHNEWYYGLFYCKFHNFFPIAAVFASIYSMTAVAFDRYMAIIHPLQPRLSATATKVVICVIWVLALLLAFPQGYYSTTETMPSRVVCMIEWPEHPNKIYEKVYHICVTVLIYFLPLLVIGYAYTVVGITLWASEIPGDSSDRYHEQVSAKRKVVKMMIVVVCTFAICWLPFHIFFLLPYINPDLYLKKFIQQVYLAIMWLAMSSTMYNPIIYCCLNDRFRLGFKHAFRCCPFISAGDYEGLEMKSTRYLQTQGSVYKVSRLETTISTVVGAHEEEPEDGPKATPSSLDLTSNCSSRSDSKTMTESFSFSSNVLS
In assay [2] the test system is Gerbil, jird. As to the kind of experiment: Inhibition of GR-73632 induced foot tapping in po dosed gerbils. The settings on record: Meriones. Format: functional.
The target in assay [3] is T1, Substance-P receptor. In words: Displacement of [3H] labelled Substance P from cloned human NK1 receptor expressed in CHO cells. Format: cell-based. A general note: Loss of bound radioactivity is the signal in a displacement assay; it reports binding, not function.

With `C/C(CCN1CCN(C(=O)c2cc(C(F)(F)F)cc(C(F)(F)F)c2)[C@H](Cc2c[nH]c3ccccc23)C1)=N/OCCCN1CCOCC1`, in assay [1], the Kb is 1 nM. For the same molecule, the ED50 in assay [2] turned out to be 5.5 mg/kg. The molecule further showed a Ki in assay [3] of 0.2 nM.

In the case of `C/C(CN1CCN(C(=O)c2cc(C(F)(F)F)cc(C(F)(F)F)c2)[C@H](Cc2c[nH]c3ccccc23)C1)=N/OCCN1CCS(=O)(=O)CC1`, the Kb in assay [1] is 0.1 nM. In addition, the median effective dose (ED50) in assay [2] is > 10 mg/kg. The affinity in assay [3] corresponds to a Ki of 2.51 nM.

Consider `O=C(c1cc(C(F)(F)F)cc(C(F)(F)F)c1)N1CCN(C/C(=N\OCCCN2CCOCC2)c2ccccc2)C[C@H]1Cc1c[nH]c2ccccc12`, for which, in assay [1], the Kb is 1.26 nM. Further, the ED50 in assay [2] was > 10 mg/kg. Also, affinity in assay [3] was put at a Ki of 6.31 nM.

Turning to `CO/N=C(/C)CN1CCN(C(=O)c2cc(C(F)(F)F)cc(C(F)(F)F)c2)[C@H](Cc2c[nH]c3ccccc23)C1`, in assay [1], the Kb was 7.94 nM. The same molecule had a Ki in assay [3] of 3.98 nM.

As to `O=C(c1cc(C(F)(F)F)cc(C(F)(F)F)c1)N1CCN(Cc2cc(CN3CCOCC3)on2)C[C@H]1Cc1c[nH]c2ccccc12`, the Kb in assay [1] is 0.794 nM. It took a dose of 4.6 mg/kg to reach the 50% effect level in assay [2] (ED50). In assay [3], the Ki is 12.6 nM.

As for `CNCCO/N=C(/C)CN1CCN(C(=O)c2cc(C(F)(F)F)cc(C(F)(F)F)c2)[C@H](Cc2c[nH]c3ccccc23)C1`, the Kb in assay [1] is 0.316 nM. Besides, the ED50 in assay [2] is > 10 mg/kg. Besides, the affinity in assay [3] corresponds to a Ki of 2 nM.

Regarding `C/C(CN1CCN(C(=O)c2cc(C(F)(F)F)cc(C(F)(F)F)c2)[C@H](Cc2c[nH]c3ccccc23)C1)=N/OCCCN1CCOCC1`, in assay [1], the Kb was 0.158 nM. The 50% effective dose (ED50) in assay [2] stood at 7.4 mg/kg. For the same molecule, the Ki in assay [3] is 12.6 nM.

On to `C/C(CN1CCN(C(=O)c2cc(C(F)(F)F)cc(C(F)(F)F)c2)[C@H](Cc2c[nH]c3ccccc23)C1)=N/OCc1ccccn1`, for which, in assay [1], the Kb is 1.26 nM. The molecule further showed an ED50 in assay [2] of 4.1 mg/kg. In addition, the affinity in assay [3] corresponds to a Ki of 10 nM.

With `C/C(CN1CCN(C(=O)c2cc(C(F)(F)F)cc(C(F)(F)F)c2)[C@H](Cc2c[nH]c3ccccc23)C1)=N/OCCN`, in assay [1], the Kb was 0.158 nM. Further, the ED50 in assay [2] is > 10 mg/kg. Also, affinity in assay [3] was put at a Ki of 0.794 nM.

For `C/C(CN1CCN(C(=O)c2cc(C(F)(F)F)cc(C(F)(F)F)c2)[C@H](Cc2c[nH]c3ccccc23)C1)=N/OCCN1CCSCC1`, in assay [1], the Kb is 1.26 nM. This molecule came in with an ED50 in assay [2] of 10 mg/kg. This molecule had an inhibition constant Ki in assay [3] of 6.31 nM.

Take `C/C(CN1CCN(C(=O)c2cc(C(F)(F)F)cc(C(F)(F)F)c2)[C@H](Cc2c[nH]c3ccccc23)C1)=N/OCC(C)(C)N1CCOCC1`: the Kb in assay [1] was 5.01 nM. For the same molecule, the affinity in assay [3] corresponds to a Ki of 6.31 nM.

For `C/C(CN1CCN(C(=O)c2cc(C(F)(F)F)cc(C(F)(F)F)c2)[C@H](Cc2c[nH]c3ccccc23)C1)=N/OCCN(C)C`, the Kb in assay [1] was 7.94 nM. Further, the ED50 in assay [2] was > 10 mg/kg. Besides, the Ki in assay [3] is 0.794 nM.

On to `C/C(CN1CCN(C(=O)c2cc(C(F)(F)F)cc(C(F)(F)F)c2)[C@H](Cc2c[nH]c3ccccc23)C1)=N/OCC(C)N1CCOCC1` (stereo not given in full), for which the Kb in assay [1] is 2 nM. In assay [2], this molecule showed an ED50 of 2.6 mg/kg. In addition, the Ki in assay [3] is 3.16 nM.

Turning to `O=C(c1cc(C(F)(F)F)cc(C(F)(F)F)c1)N1CCN(C/C=N\OCCCN2CCOCC2)C[C@H]1Cc1c[nH]c2ccccc12`, in assay [1], the Kb is 0.631 nM. This molecule also came in with an ED50 in assay [2] of 2.3 mg/kg. In assay [3], the affinity, expressed as Ki, was 1.26 nM.

Turning to `O=C(c1cc(C(F)(F)F)cc(C(F)(F)F)c1)N1CCN(C/C=N\OCCN2CCOCC2)C[C@H]1Cc1c[nH]c2ccccc12`, the Kb in assay [1] is 0.631 nM. For the same molecule, the 50% effect level in assay [2] (ED50) was put at a dose of 2 mg/kg. The same molecule gave an inhibitory constant (Ki) in assay [3] of 1.26 nM.

Consider `C/C(CCN1CCN(C(=O)c2cc(C(F)(F)F)cc(C(F)(F)F)c2)[C@H](Cc2c[nH]c3ccccc23)C1)=N/OCCN1CCOCC1`, for which the Kb in assay [1] is 1.26 nM. The molecule further displayed an ED50 in assay [2] of 2 mg/kg. This molecule also showed an inhibition constant Ki in assay [3] of 0.398 nM.

Turning to `C/C(CN1CCN(C(=O)c2cc(C(F)(F)F)cc(C(F)(F)F)c2)[C@H](Cc2c[nH]c3ccccc23)C1)=N/OCCN1CCOCC1`, the Kb in assay [1] is 0.158 nM. For the same molecule, the ED50 in assay [2] stood at 1.3 mg/kg. In assay [3], this molecule showed a Ki of 10 nM.

`O=C(c1cc(C(F)(F)F)cc(C(F)(F)F)c1)N1CCN(CC/C(=N\OCCN2CCOCC2)c2ccccc2)C[C@H]1Cc1c[nH]c2ccccc12`: the Kb in assay [1] was 1.26 nM. Besides, the ED50 in assay [2] was > 10 mg/kg. In assay [3], affinity was put at a Ki of 10 nM.

In the case of `C/C(CN1CCN(C(=O)c2cc(C(F)(F)F)cc(C(F)(F)F)c2)[C@H](Cc2c[nH]c3ccccc23)C1)=N/OCCN1CCN(C)CC1`, the Kb in assay [1] is 1.58 nM. Further, the ED50 in assay [2] is > 10 mg/kg. The same molecule showed a Ki in assay [3] of 1.58 nM.

On to `O=C(c1cc(C(F)(F)F)cc(C(F)(F)F)c1)N1CCN(C/C(=N\OCCN2CCOCC2)c2ccccc2)C[C@H]1Cc1c[nH]c2ccccc12`, for which the Kb in assay [1] was 3.16 nM. The same molecule gave a Ki in assay [3] of 20 nM.

On to `COc1ccccc1CNCCNC(=O)N1CCN(C(=O)c2cc(C(F)(F)F)cc(C(F)(F)F)c2)[C@H](Cc2c[nH]c3ccccc23)C1`, for which, in assay [1], the Kb is 1.26 nM. Further, the ED50 in assay [2] is > 10 mg/kg.

Turning to `C/C(CCCN1CCN(C(=O)c2cc(C(F)(F)F)cc(C(F)(F)F)c2)[C@H](Cc2c[nH]c3ccccc23)C1)=N/OCCN1CCOCC1`, in assay [1], the Kb was 1.58 nM. In assay [2], this molecule registered an ED50 of 2 mg/kg. Moreover, in assay [3], the affinity corresponds to a Ki of 1.26 nM.

`O=C(c1cc(C(F)(F)F)cc(C(F)(F)F)c1)N1CCN(CC2=NOC(CN3CCOCC3)C2)C[C@H]1Cc1c[nH]c2ccccc12` (stereo not given in full): the Kb in assay [1] was 0.631 nM. The molecule also registered an ED50 in assay [2] of 6.4 mg/kg. In assay [3], this molecule had a Ki of 2.51 nM.
